The record followed here is patent publication US20240270762A1, “PENICILLIN-BINDING PROTEIN INHIBITORS” (priority 2021, published 2024).

In brackets after ≈: the same amount, converted by molar mass. Where two headings read alike, the source gives them in different places.

Assay [1] concerns the target T1, PBP3 from Escherichia coli (K-12) (Escherichia coli, UniProt P0AD68).
T1 construct: made in house
The assay can be described thus: Bocillin-FL fluorescence polarization competition binding, E. coli PBP3. In short, it runs like this: (§1)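 Purified PBPs pre-incubated with inhibitor (E. coli PBP3 1.5 μM, 30 min; P. aeruginosa PBP3 0.75 μM, A. baumannii PBP1a 1 μM and PBP3 0.2 μM, 15 min), then Bocillin-FL 0.1 μM (0.05 μM for PBP1a) added; FP read up to 60 min. EC50 = concentration halving bound Bocillin-FL.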
A general note: Polarisation of emitted light reports the rotation of a fluorescent probe.

The target of assay [2] is T2, PBP3 from Pseudomonas aeruginosa (PAO1) (Pseudomonas aeruginosa, UniProt G3XD46).
T2 construct: made in house
The assay can be described thus: Bocillin-FL fluorescence polarization competition binding, P. aeruginosa PBP3. As to conditions: Binding affinity to P. aeruginosa PBP3; fluorescence polarization competition binding assay using Bocillin-FL; read-out: P. aeruginosa PBP3 Potency. The method in brief:
as §1

Assay [3] deals with T3, PBP3 from Acinetobacter baumannii (ATCC 19606) (Acinetobacter baumannii, UniProt A0ABX6CK25).
T3 sequence (A0ABX6CK25 64-610): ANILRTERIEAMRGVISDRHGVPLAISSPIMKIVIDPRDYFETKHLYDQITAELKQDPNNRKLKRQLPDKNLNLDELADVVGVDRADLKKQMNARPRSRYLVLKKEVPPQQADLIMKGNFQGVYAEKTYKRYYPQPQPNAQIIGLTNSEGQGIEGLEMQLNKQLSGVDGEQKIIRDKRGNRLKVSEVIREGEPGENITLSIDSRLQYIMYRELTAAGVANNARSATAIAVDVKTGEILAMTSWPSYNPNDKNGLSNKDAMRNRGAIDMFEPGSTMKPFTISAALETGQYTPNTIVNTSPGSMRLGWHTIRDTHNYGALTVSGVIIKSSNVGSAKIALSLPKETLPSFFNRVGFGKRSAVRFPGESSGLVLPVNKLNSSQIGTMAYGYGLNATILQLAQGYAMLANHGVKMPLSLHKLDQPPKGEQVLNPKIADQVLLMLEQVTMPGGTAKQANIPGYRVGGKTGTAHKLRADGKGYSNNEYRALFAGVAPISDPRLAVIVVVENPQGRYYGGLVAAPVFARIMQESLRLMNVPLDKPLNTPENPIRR
The assay can be described thus: Bocillin-FL fluorescence polarization competition binding, A. baumannii PBP3. As to conditions: fluorescence polarization competition binding assay using Bocillin-FL; read-out: A. baumannii PBP3 Potency. The method in brief: as §1

In assay [4] the test system is P. aeruginosa ATCC 35151. The assay can be described thus: microbe, parasite or virus in culture. It counts as cell-based. The note with it: Pseudomonas aeruginosa, ATCC35151, read-out: Minimum inhibitory concentration, P. aeruginosa ATCC 35151.
In assay [5] the test system is P. aeruginosa CDC-0090. The assay can be described thus: microbe, parasite or virus in culture. It is filed as cell-based. The note with it: Pseudomonas aeruginosa, CDC0090, read-out: Minimum inhibitory concentration, P. aeruginosa CDC-0090.
The subject of assay [6] is P. aeruginosa CDC-0095. The assay can be described thus: microbe, parasite or virus in culture. It counts as cell-based. As to conditions: Pseudomonas aeruginosa, CDC0095, read-out: Minimum inhibitory concentration, P. aeruginosa CDC-0095.
The subject of assay [7] is A. baumannii CDC-0033. The assay can be described thus: microbe, parasite or virus in culture. As to conditions: Acinetobacter baumannii, CDC0033, read-out: MIC, A. baumannii CDC-0033. It counts as cell-based.
Assay [8] has as its system B. thailandensis ATCC 700388. The assay can be described thus: microbe, parasite or virus in culture. It is filed as cell-based. As to conditions: Burkholderia thailandensis, ATCC700388, read-out: Minimum inhibitory concentration (MIC), B. thailandensis ATCC 700388.
Assay [9] deals with N. gonorrhoeae ATCC 49226. The assay can be described thus: Liquid broth MIC in Fastidious broth. The note with it: Neisseria gonorrhoeae.
In assay [10] the test system is N. gonorrhoeae FA1090. The assay can be described thus: Liquid broth MIC in Fastidious broth. The note with it: Neisseria gonorrhoeae.
Assay [11] relates to N. gonorrhoeae WHO G. The assay can be described thus: Liquid broth MIC in Fastidious broth. As to conditions: Neisseria gonorrhoeae.
Where [12] appears, read: ATCC49226, read-out: Minimum Inhibitory Concentration, ATCC 49226.
Where [13] appears, read: FA1090, read-out: Minimum Inhibitory Concentration, FA 1090.
The mark [14] stands for this setting: read-out: Minimum Inhibitory Concentration, WHO G.

T2 sequence (G3XD46 whole entry): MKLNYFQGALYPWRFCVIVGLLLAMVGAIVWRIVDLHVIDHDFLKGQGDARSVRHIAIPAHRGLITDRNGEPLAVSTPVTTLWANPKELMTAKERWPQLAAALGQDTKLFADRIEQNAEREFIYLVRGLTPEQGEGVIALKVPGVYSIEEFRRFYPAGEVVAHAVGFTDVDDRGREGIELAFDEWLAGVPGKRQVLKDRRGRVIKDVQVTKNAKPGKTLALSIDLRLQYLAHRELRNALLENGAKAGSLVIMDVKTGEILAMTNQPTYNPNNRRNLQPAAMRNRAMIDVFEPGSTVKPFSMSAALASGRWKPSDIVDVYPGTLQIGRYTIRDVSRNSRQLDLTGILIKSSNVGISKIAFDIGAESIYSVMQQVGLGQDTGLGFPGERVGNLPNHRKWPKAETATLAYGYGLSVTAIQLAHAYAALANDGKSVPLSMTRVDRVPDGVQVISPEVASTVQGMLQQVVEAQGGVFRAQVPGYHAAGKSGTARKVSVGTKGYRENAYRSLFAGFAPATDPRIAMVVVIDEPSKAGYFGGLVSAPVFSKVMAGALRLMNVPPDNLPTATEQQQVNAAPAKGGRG
T1 sequence (P0AD68 1-577): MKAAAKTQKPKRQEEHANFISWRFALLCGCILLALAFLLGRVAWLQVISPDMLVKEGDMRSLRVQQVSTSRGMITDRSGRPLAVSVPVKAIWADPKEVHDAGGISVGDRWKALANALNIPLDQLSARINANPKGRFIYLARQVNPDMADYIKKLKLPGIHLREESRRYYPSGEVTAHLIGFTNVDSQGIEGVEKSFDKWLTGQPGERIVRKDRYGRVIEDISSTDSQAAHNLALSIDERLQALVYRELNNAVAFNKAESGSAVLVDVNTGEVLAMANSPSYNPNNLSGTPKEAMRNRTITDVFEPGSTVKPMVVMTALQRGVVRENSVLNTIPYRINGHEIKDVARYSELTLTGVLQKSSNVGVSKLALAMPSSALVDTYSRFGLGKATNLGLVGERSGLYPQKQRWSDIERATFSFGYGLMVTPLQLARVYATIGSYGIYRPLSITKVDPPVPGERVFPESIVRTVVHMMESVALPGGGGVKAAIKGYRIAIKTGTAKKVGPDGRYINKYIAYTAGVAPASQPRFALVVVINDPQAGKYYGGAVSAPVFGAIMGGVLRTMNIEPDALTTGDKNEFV

For orientation: EC50 means the concentration that produces a half-maximal response. Lower therefore signals greater potency. Take `O=C(NCCCS(=O)(=O)N1CCN(C(=O)NC(C(=O)N[C@H]2Cc3ccc(F)c(C(=O)O)c3OB2O)c2cc(F)c(O)c(O)c2Cl)C1=O)Nc1cccc(O)c1` (stereo partly drawn) [Example 277, (3R)-3-(2-(2-chloro-5-fluoro-3,4-dihydroxyphenyl)-2-(3-((3-(3-(3-hydroxyphenyl)ureido)propyl)sulfonyl)-2-oxoimidazolidine-1-carboxamido)acetamido)-7-fluoro-2-hydroxy-3,4-dihydro-2H-benzo[e][1,2]oxaborinine-8-carboxylic acid]: the EC50 in assay [1] is < 10 µM. The IC50 in assay [2] and in assay [3] was < 10 µM in each case. In addition, the MIC in assay [4] was < 1 µg/mL; in assay [5], 2 to 4 µg/mL (≈ 2.47 to 4.93 µM); in [6], 8 to 16 µg/mL (≈ 9.87 to 19.7 µM); in [7], 2 to 4 µg/mL (≈ 2.47 to 4.93 µM); in [8] it was 32 to 64 µg/mL (≈ 39.5 to 78.9 µM); in assay [9] (setting [12]), 16 to 32 µg/mL (≈ 19.7 to 39.5 µM). Also, the figures for the MIC in [10] (setting [13]) and in assay [11] (setting [14]) were 1 to 2 µg/mL (≈ 1.23 to 2.47 µM) and 16 to 32 µg/mL (≈ 19.7 to 39.5 µM), respectively.
On to `O=C(NCCS(=O)(=O)N1CCN(C(=O)NC(C(=O)N[C@H]2Cc3ccc(F)c(C(=O)O)c3OB2O)c2cc(F)c(O)c(O)c2Cl)C1=O)Nc1ccc(O)cc1` (stereo partly drawn) [Example 289, (3R)-3-(2-(2-chloro-5-fluoro-3,4-dihydroxyphenyl)-2-(3-((2-(3-(4-hydroxyphenyl)ureido)ethyl)sulfonyl)-2-oxoimidazolidine-1-carboxamido)acetamido)-7-fluoro-2-hydroxy-3,4-dihydro-2H-benzo[e][1,2]oxaborinine-8-carboxylic acid], for which the EC50 in assay [1] was < 10 µM. In addition, the IC50 in assay [2] and in [3] was < 10 µM throughout. In addition, the MIC was < 1 µg/mL in assay [4]; 2 to 4 µg/mL (≈ 2.51 to 5.02 µM) in assay [5]; 2 to 4 µg/mL (≈ 2.51 to 5.02 µM) in [6]; 2 to 4 µg/mL (≈ 2.51 to 5.02 µM) in assay [7]; 8 to 16 µg/mL (≈ 10 to 20.1 µM) in assay [8]; 16 to 32 µg/mL (≈ 20.1 to 40.2 µM) in assay [9] (setting [12]). In addition, the MIC lay within 1 to 2 µg/mL (≈ 1.25 to 2.51 µM) in assay [10] (setting [13]) and 4 to 8 µg/mL (≈ 5.02 to 10 µM) in [11] (setting [14]).
Take `O=C(NCCCN1CCN(C(=O)N[C@H](C(=O)N[C@H]2Cc3ccc(F)c(C(=O)O)c3OB2O)c2cc(F)c(O)c(O)c2Cl)C(=O)C1=O)c1cccc(O)c1Cl` [Example 302, (R)-3-((S)-2-(4-(3-(2-chloro-3-hydroxybenzamido)propyl)-2,3-dioxopiperazine-1-carboxamido)-2-(2-chloro-5-fluoro-3,4-dihydroxyphenyl)acetamido)-7-fluoro-2-hydroxy-3,4-dihydro-2H-benzo[e][1,2]oxaborinine-8-carboxylic acid]: in assay [1], the EC50 is > 250 µM. Also, the IC50 in assay [2] and in assay [3] was 50 to 250 µM in each case. The MIC in [4] is 2 to 4 µg/mL (≈ 2.52 to 5.04 µM); in assay [5], 32 to 64 µg/mL (≈ 40.3 to 80.6 µM); in assay [6], > 128 µg/mL; in assay [7], > 128 µg/mL; in assay [8] it was > 128 µg/mL; in assay [9] (setting [12]), > 64 µg/mL. Further, the MIC in assay [10] (setting [13]) and in assay [11] (setting [14]) was > 64 µg/mL throughout.
As for `O=C(NCCCN1CCN(C(=O)N[C@H](C(=O)N[C@H]2Cc3ccc(F)c(C(=O)O)c3OB2O)c2cc(F)c(O)c(O)c2Cl)C(=O)C1=O)c1ccnc(F)c1F` [Example 299, (R)-3-((S)-2-(2-chloro-5-fluoro-3,4-dihydroxyphenyl)-2-(4-(3-(2,3-difluoroisonicotinamido)propyl)-2,3-dioxopiperazine-1-carboxamido)acetamido)-7-fluoro-2-hydroxy-3,4-dihydro-2H-benzo[e][1,2]oxaborinine-8-carboxylic acid], the EC50 in [1] was > 250 µM. The IC50 in assay [2] and in assay [3] was 10 to 50 µM throughout. The MIC is < 1 µg/mL in assay [4]; 2 to 4 µg/mL (≈ 2.56 to 5.12 µM) in assay [5]; 2 to 4 µg/mL (≈ 2.56 to 5.12 µM) in assay [6]; 8 to 16 µg/mL (≈ 10.2 to 20.5 µM) in [7]; > 128 µg/mL in assay [8]; > 64 µg/mL in [9] (setting [12]). In addition, the results for the MIC in assay [10] (setting [13]) and in [11] (setting [14]) were 16 to 32 µg/mL (≈ 20.5 to 41 µM) and > 64 µg/mL, respectively.
Consider `O=C(O)c1c(F)ccc2c1OB(O)[C@@H](NC(=O)C(NC(=O)N1CCN(C3CCN(C(=O)c4cccc(O)c4)CC3)C(=O)C1=O)c1cc(F)c(O)c(O)c1Cl)C2` (stereo partly drawn) [Example 293, (3R)-3-(2-(2-chloro-5-fluoro-3,4-dihydroxyphenyl)-2-(4-(1-(3-hydroxybenzoyl)piperidin-4-yl)-2,3-dioxopiperazine-1-carboxamido)acetamido)-7-fluoro-2-hydroxy-3,4-dihydro-2H-benzo[e][1,2]oxaborinine-8-carboxylic acid], for which the EC50 in [1] was < 10 µM. Also, the IC50 in assay [2] and in [3] was < 10 µM throughout. In addition, the MIC is < 1 µg/mL in assay [4]; 2 to 4 µg/mL (≈ 2.54 to 5.09 µM) in assay [5]; 2 to 4 µg/mL (≈ 2.54 to 5.09 µM) in [6]; 2 to 4 µg/mL (≈ 2.54 to 5.09 µM) in assay [7]; < 1 µg/mL in [8]; 16 to 32 µg/mL (≈ 20.4 to 40.7 µM) in assay [9] (setting [12]). The MIC in [10] (setting [13]) is 1 to 2 µg/mL (≈ 1.27 to 2.54 µM); in assay [11] (setting [14]), 16 to 32 µg/mL (≈ 20.4 to 40.7 µM).
As to `O=C(NCCCN1CCN(C(=O)NC(C(=O)N[C@H]2Cc3ccc(F)c(C(=O)O)c3OB2O)c2cc(F)c(O)c(O)c2Cl)C1=O)c1cccnc1` (stereo partly drawn) [Example 281, (3R)-3-(2-(2-chloro-5-fluoro-3,4-dihydroxyphenyl)-2-(3-(3-(nicotinamido)propyl)-2-oxoimidazolidine-1-carboxamido)acetamido)-7-fluoro-2-hydroxy-3,4-dihydro-2H-benzo[e][1,2]oxaborinine-8-carboxylic acid], the EC50 in [1] lay in the range of 10 to 50 µM. Further, the IC50 in assay [2] and in [3] was < 10 µM in each case. The MIC in [4] was < 1 µg/mL; in [5], 2 to 4 µg/mL (≈ 2.79 to 5.58 µM); in assay [6], 2 to 4 µg/mL (≈ 2.79 to 5.58 µM); in assay [7], 2 to 4 µg/mL (≈ 2.79 to 5.58 µM); in assay [8], 2 to 4 µg/mL (≈ 2.79 to 5.58 µM); in assay [9] (setting [12]), > 64 µg/mL. Further, the MIC lay in the range of 4 to 8 µg/mL (≈ 5.58 to 11.2 µM) in assay [10] (setting [13]) and 16 to 32 µg/mL (≈ 22.3 to 44.6 µM) in assay [11] (setting [14]).
For `O=C(NCCCN1CCN(C(=O)NC(C(=O)N[C@H]2Cc3ccc(F)c(C(=O)O)c3OB2O)c2cc(F)c(O)c(O)c2Cl)C1=O)Nc1ccncc1` (stereo partly drawn) [Example 285, (3R)-3-(2-(2-chloro-5-fluoro-3,4-dihydroxyphenyl)-2-(2-oxo-3-(3-(3-(pyridin-4-yl)ureido)propyl)imidazolidine-1-carboxamido)acetamido)-7-fluoro-2-hydroxy-3,4-dihydro-2H-benzo[e][1,2]oxaborinine-8-carboxylic acid], the EC50 in [1] is 10 to 50 µM. In addition, the IC50 in assay [2] and in [3] was < 10 µM in each case. In addition, the MIC in assay [4] is < 1 µg/mL; in assay [5] it was 2 to 4 µg/mL (≈ 2.73 to 5.47 µM); in assay [6], > 128 µg/mL; in assay [7] it was 8 to 16 µg/mL (≈ 10.9 to 21.9 µM); in [8] it was 2 to 4 µg/mL (≈ 2.73 to 5.47 µM); in assay [9] (setting [12]), > 64 µg/mL. The values for the MIC in [10] (setting [13]) and in assay [11] (setting [14]) were 4 to 8 µg/mL (≈ 5.47 to 10.9 µM) and > 64 µg/mL, respectively.
Consider `O=C(O)c1cccc2c1OB(O)[C@@H](NC(=O)C(NC(=O)N1CCN(CC(F)(F)F)C(=O)C1=O)c1ccc(P(=O)(O)O)cc1)C2` (stereo partly drawn) [Example 4, (3R)-3-(2-(2,3-dioxo-4-(2,2,2-trifluoroethyl)piperazine-1-carboxamido)-2-(4-phosphonophenyl)acetamido)-2-hydroxy-3,4-dihydro-2H-benzo[e][1,2]oxaborinine-8-carboxylic acid], for which the EC50 in assay [1] is < 10 µM. Besides, the IC50 in assay [2] was < 10 µM. Also, the MIC is < 1 µg/mL in assay [9] (ATCC49226, read-out: Minimum Inhibitory Concentration (MIC), N. gonorrhoeae ATCC 49226); < 1 µg/mL in assay [10] (FA1090, read-out: Minimum Inhibitory Concentration (MIC), N. gonorrhoeae FA 1090); < 1 µg/mL in assay [11] (read-out: Minimum Inhibitory Concentration (MIC), N. gonorrhoeae WHO G).
